Experiment in all cases: In vitro antibacterial activity (MIC)
Common to all, as to format: cell-based

The subject of test [1] is E. aerogenes 8. An outline of the steps: (§1)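 Broth microdilution in Mueller-Hinton broth, drug range 128 to 0.008 μg/ml. Each well received 1.5 μl of a 10^-2 dilution of an overnight culture; sealed trays were incubated overnight at 37° C. MIC = lowest concentration with no visible growth.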
Test [2] concerns E. cloacae 6951. Summed up: as §1
In test [3] the test system is E. cloacae P99. Particulars: Enterobacter cloacae, P99, E. cloacae P99. Summed up:
as §1

Test [4] deals with E. coli 503-455. Summed up: as §1
Test [5] has as its system E. coli R-563. As to conditions: Escherichia coli, R563, E. coli R-563; read-out: MIC. An outline of the steps:
as §1

Test [6] concerns K. pneumoniae 503-964. An outline of the steps:
as §1

In test [7] the test system is K. pneumoniae 8357. Summed up: as §1
Test [8] deals with K. pneumoniae A. As to conditions: Klebsiella pneumoniae. An outline of the steps:
as §1

In test [9] the test system is P. aeruginosa 503-820. Particulars: Pseudomonas aeruginosa, 503820; P. aeruginosa 503-820; read-out: MIC. Summed up:
as §1

Test [10] deals with P. aeruginosa 5700. As to conditions: Pseudomonas aeruginosa, 5700, P. aeruginosa 5700; read-out: MIC. Summed up:
as §1

The test system of test [11] is P. aeruginosa 8780. Particulars: Pseudomonas aeruginosa; P. aeruginosa 8780; read-out: MIC. An outline of the steps: as §1
Test [12] has as its system P. aeruginosa Stone 130. Particulars: Pseudomonas aeruginosa, STONE130, read-out: MIC. Summed up: as §1
Test [13] deals with P. mirabilis 190. As to conditions: Proteus mirabilis, 190, P. mirabilis 190; read-out: MIC. Summed up:
as §1

Test [14] relates to P. mirabilis 620A. Particulars: Proteus mirabilis, 620A, P. mirabilis 620A; read-out: MIC. Summed up:
as §1

Test [15] has as its system P. mirabilis 90. Particulars: Proteus mirabilis, 90, P. mirabilis 90; read-out: MIC. An outline of the steps:
as §1

Test [16] concerns P. rettgeri ATCC 9250. Particulars: Providencia rettgeri, ATCC9250, P. rettgeri ATCC 9250; read-out: MIC. Summed up:
as §1

The subject of test [17] is P. vulgaris 100. As to conditions: Proteus vulgaris. An outline of the steps: as §1
In test [18] the test system is S. aureus 1059B. As to conditions: Staphylococcus aureus, read-out: MIC. Summed up:
as §1

Test [19] relates to S. faecalis C1. Particulars: Enterococcus faecalis; S. faecalis C1; read-out: MIC. An outline of the steps:
as §1

For test [20], the system named is S. marcescens S2. Particulars: Serratia marcescens; S. marcescens S2; read-out: MIC. Summed up:
as §1

The test system of test [21] is S. marcescens S5. As to conditions: Serratia marcescens, S5, S. marcescens S5; read-out: MIC. Summed up: as §1
For test [22], the system named is S. marcescens SM. As to conditions: Serratia marcescens, read-out: MIC. Summed up:
as §1

Setting [23] is: Klebsiella aerogenes, E. aerogenes 8, read-out: MIC.
Where [24] appears, read: Enterobacter cloacae, 6951, E. cloacae 6951, read-out: MIC.
Where [25] appears, read: Escherichia coli, 503455, E. coli 503-455, read-out: MIC.
The mark [26] stands for this setting: Klebsiella pneumoniae, 503964, K. pneumoniae 503-964, read-out: MIC.
[27] abbreviates: Klebsiella pneumoniae, 8357, K. pneumoniae 8357, read-out: MIC.

Where a name gives a salt, the structure may show the parent alone. Read-outs that look alike come from different tables or passages of the source. Where only a bound is given, the exact number is not on record here.

Experimental findings from patent US4605744A, “Imidazole derivatives” (Hoffmann-La Roche Inc., priority 1985, dated 1986) are described below.

As usually defined, the MIC is the least concentration at which growth counts as inhibited.

For the molecule `Cc1nc(C)n(CCCC2CCN(C=N[C@@H]3C(=O)N4[C@@H]3SC(C)(C)[C@@H]4C(=O)O)CC2)c1C` [E, [2S-(2alpha,5alpha,6beta)]-6[[4-[3-[(2,4,5-trimethyl-1H-imidazol-1-yl)propyl]-1-piperidinyl]methylene]amino]-3,3-dimethyl-7-oxo-4-thia-1-azabicyclo[3.2.0]heptane-2-carboxylic acid hydrate hydrochloride], the MIC in test [1] (setting [23]) turned out to be 32 mg/L; in [2] (setting [24]) it was 8 mg/L; in [3], 0.125 mg/L; in test [4] (setting [25]) it was 2 mg/L; in [5], 4 mg/L; in test [6] (setting [26]), 0.062 mg/L. The MIC in [7] (setting [27]) is 0.062 mg/L; in test [8] (K. pneumoniae A, read-out: MIC) it was 0.062 mg/L; in [9], more than 128 mg/L; in test [10] it was more than 128 mg/L; in test [11], more than 128 mg/L; in test [12], more than 128 mg/L. Moreover, the MIC stood at 0.25 mg/L in test [13]; 128 mg/L in test [14]; 0.5 mg/L in [15]; 0.5 mg/L in test [16]; 8 mg/L in test [17] (P. vulgaris 100, read-out: MIC); 64 mg/L in test [18]. The MIC in test [19] amounted to 128 mg/L; in [20], 0.5 mg/L; in test [21], 1 mg/L; in [22] it was 0.125 mg/L.

As for `Cc1nccn1CCCC1CCN(C=N[C@@H]2C(=O)N3[C@@H]2SC(C)(C)[C@@H]3C(=O)O)CC1` [F, [2S-(2alpha,5alpha,6beta)]-3,3-dimethyl-6-[[[4-[3-(2-methyl-1H-imidazol-1-yl)propyl]-1-piperidinyl]methylene]amino]-7-oxo-4-thia-1-azabicyclo[3.2.0]heptane-2-carboxylic acid 1.15 molar hydrochloride 1.75 molar hydrate], the MIC came out at 32 mg/L in test [1] (setting [23]); 8 mg/L in [2] (setting [24]); 0.125 mg/L in test [3]; 2 mg/L in [4] (setting [25]); 0.062 mg/L in test [5]; 4 mg/L in test [6] (Klebsiella pneumoniae, 503964, K. pneumoniae 503-964). Further, the MIC in [7] (Klebsiella pneumoniae, 8357) is 1 mg/L; in test [8] (K. pneumoniae A, read-out: MIC) it was 0.031 mg/L; in [9], more than 128 mg/L; in test [10], 0.5 mg/L; in test [11], more than 12 mg/L; in test [12], more than 128 mg/L. Also, the MIC came to 0.25 mg/L in test [13]; 16 mg/L in test [14]; 0.5 mg/L in [15]; 0.25 mg/L in [16]; 16 mg/L in [17] (P. vulgaris 100, read-out: MIC); 64 mg/L in [18]. The MIC in [19] came to 128 mg/L; in test [20] it was 0.25 mg/L; in test [21], 1 mg/L; in test [22] it was 0.125 mg/L.

For the molecule `CCc1nc(C)cn1CCCC1CCN(C=N[C@@H]2C(=O)N3[C@@H]2SC(C)(C)[C@@H]3C(=O)O)CC1` [G, [2S-(2alpha,5alpha,6beta)]-6-[[[4-[3-(2-ethyl-4methyl-1H-imidazol-1-yl)propyl]piperidinyl]methylene]amino]-3,3-dimethyl-7-oxo-4-thia-1-azabicyclo[3.2.0]heptane-2-carboxylic acid hydrochloride], the MIC in [1] (setting [23]) is 16 mg/L; in test [2] (setting [24]) it was 16 mg/L; in test [3], 0.5 mg/L; in [4] (setting [25]), 4 mg/L; in test [5], 0.25 mg/L; in test [6] (setting [26]) it was 0.062 mg/L. For the same molecule, the MIC is 1 mg/L in test [7] (Klebsiella pneumoniae, 8357); 0.125 mg/L in [8]; more than 128 mg/L in [9]; 1 mg/L in test [10]; more than 128 mg/L in test [11]; more than 128 mg/L in test [12]. The MIC in test [13] stood at 0.5 mg/L; in test [14], 64 mg/L; in [15], 1 mg/L; in [16] it was 1 mg/L; in [17] (100) it was 32 mg/L; in [18], 128 mg/L. For the same molecule, the MIC in test [19] is 128 mg/L; in test [20] it was 1 mg/L; in test [21] it was 2 mg/L; in test [22], 1 mg/L.

As to `CC1(C)S[C@@H]2[C@H](N=CN3CCC(Cn4ccnc4N)CC3)C(=O)N2[C@H]1C(=O)O` [H, [2S-(2alpha,5alpha,6beta)]-6-[[[4-[(2-amino-1H-imidazol-1-yl)methyl-1-piperidinyl]methylene]amino]-3,3-dimethyl-7-oxo-4-thia-1-azabicyclo[3.2.0]heptane-2-carboxylic acid hydrochloride], the MIC in test [1] (Klebsiella aerogenes, 8, E. aerogenes 8) came to 32 mg/L; in test [2] (Enterobacter cloacae, 6951) it was 4 mg/L; in test [3], 0.062 mg/L; in [4] (Escherichia coli, 503455), 1 mg/L; in [5], 0.062 mg/L; in [6] (setting [26]), 0.125 mg/L. The MIC in test [7] (setting [27]) was 0.125 mg/L; in test [8] (K. pneumoniae A, read-out: MIC), 0.031 mg/L; in test [9], 64 mg/L; in [10], 0.125 mg/L; in [11], more than 128 mg/L; in [12], more than 128 mg/L. Also, the MIC turned out to be 0.125 mg/L in test [13]; 16 mg/L in [14]; 0.125 mg/L in test [15]; 0.25 mg/L in test [16]; 4 mg/L in test [17] (P. vulgaris 100, read-out: MIC); 128 mg/L in test [18]. In addition, the minimal inhibitory concentration (MIC) in [19] was found to be 64 mg/L; in [20], 0.062 mg/L; in test [21] it was 0.5 mg/L; in test [22] it was 0.125 mg/L.

On to `CC1(C)S[C@@H]2[C@H](N=CN3CCC(Cn4ccnc4CN)CC3)C(=O)N2[C@H]1C(=O)O` [J, [2S-(2alpha,5alpha,6beta)]-6-[[[4-[[2-(aminomethyl)-1H-imidazol-1-yl]methyl]-1-piperidinyl]methylene]amino]-3,3-dimethyl-7-oxo-4-thia-1-azabicyclo[3.2.0]heptane-2-carboxylic acid hydrochloride], for which the minimum inhibitory concentration (MIC) in test [1] (setting [23]) turned out to be 0.5 mg/L; in test [2] (setting [24]) it was 16 mg/L; in [3], 8 mg/L; in test [4] (setting [25]) it was 1 mg/L; in test [5], 0.125 mg/L; in test [6] (setting [26]), 0.25 mg/L. For the same molecule, the MIC is 4 mg/L in test [7] (setting [27]); 0.062 mg/L in [8] (K. pneumoniae A, read-out: MIC); more than 128 mg/L in [9]; 0.5 mg/L in test [10]; more than 128 mg/L in test [11]; more than 128 mg/L in test [12]. Moreover, the MIC in test [13] is 0.5 mg/L; in test [14] it was more than 128 mg/L; in test [15], 1 mg/L; in test [16], 16 mg/L; in test [17] (P. vulgaris 100, read-out: MIC), 8 mg/L; in [18] it was more than 128 mg/L. The MIC in test [19] amounted to 128 mg/L; in [20] it was 0.25 mg/L; in test [21], 0.5 mg/L; in [22] it was 0.5 mg/L.

Turning to `CC1(C)S[C@@H]2[C@H](N=CN3CCC(CCCn4ccnc4[N+](=O)[O-])CC3)C(=O)N2[C@H]1C(=O)O` [K, [2S-(2alpha,5alpha,6beta)]-6-[[[4-[3-(2-nitro-1H-imidazol-1-yl)propyl]piperidinyl]methylene]amino]-3,3-dimethyl-7-oxo-4-thia-1-azabicyclo[3.2.0]heptane-2-carboxylic acid hydrochloride 0.66 molar hydrate], the MIC in test [1] (setting [23]) turned out to be 8 mg/L; in [2] (setting [24]), 16 mg/L; in [3], 0.5 mg/L; in [4] (Escherichia coli, 503455), 4 mg/L; in test [5], 0.5 mg/L; in test [6] (setting [26]), 0.5 mg/L. Also, the MIC in test [7] (Klebsiella pneumoniae, 8357) is 2 mg/L; in test [8] (K. pneumoniae A, read-out: MIC) it was 0.25 mg/L; in [9], more than 128 mg/L; in [10] it was 4 mg/L; in [11], more than 128 mg/L; in [12], more than 128 mg/L. The MIC in [13] was found to be 0.5 mg/L; in test [14] it was 16 mg/L; in test [15], 8 mg/L; in test [16], 2 mg/L; in test [17] (P. vulgaris 100, read-out: MIC), 16 mg/L; in test [18] it was 128 mg/L. Moreover, the MIC in test [19] was 128 mg/L; in test [20] it was 2 mg/L; in test [21] it was 8 mg/L; in test [22], 2 mg/L.
